From US10034931B2, “Use of EGFR pathway inhibitors to increase immune responses to antigens” (Emory University, priority 2013, dated 2018)

Assays:
CCL2 = assay: Steady state mRNA levels of immune genes in skin after topical application; format: in vivo, Balb/c mice; conditions: topical application to dorsal skin, six hour time point
Source text: The topical application of the irreversible EGFR inhibitor PD168393 can enhance the elicitation phase of contact hypersensitivity in a manner that is associated with increases in several chemoattractant chemokines. During EGFRI therapy there are changes in immune gene expression even in clinically normal (non-inflamed) skin). To determine how EGFR inhibition alters immune gene expression, PD168393 or vehicle (10% DMSO in ethanol) was applied to the backs of Balb/c mice (5 mice per group) and steady state mRNA levels of several genes were measured. A six hour time point was selected for these experiments. […] This increase was observed independent of the reference housekeeping gene used in the analysis. In contrast, steady state levels of the housekeeping genes and several other genes analyzed were unchanged by topical PD168393 at this time point. These studies indicate that a single application of an EGFRI to mouse skin can alter the expression of chemokines that are known to influence immune cell trafficking into the skin.

[1] = test system: IFN-γ-producing and IL-4-producing cells; assay: IL-4 and IFN-γ secreting cells (ELISPOT) in skin-draining lymph nodes and spleens; format: in vivo, BALB/c mice
contact hypersensitivity = conditions: topical application; associated with increases in several chemoattractant chemokines; cited from earlier work
[2] = test system: influenza-specific binding IgG antibodies; assay: Virus-specific (total vaccine-reactive) antibody levels by ELISA; format: in vivo, BALB/c mice; conditions: between the three groups (EGFRI, vehicle, vaccine only)
[3] = test system: A/California/07/2009 virus; assay: Neutralizing antibody titers by microneutralization assay in sera of vaccinated mice; format: in vivo, BALB/c mice; conditions: by week 8; vs vehicle-vaccinated and vaccine alone
[4] = test system: vaccine-specific IgM-secreting cells and IgG-secreting cells; assay: Vaccine-specific antibody secreting cells (ELISPOT) in skin draining lymph nodes and spleen; format: in vivo, BALB/c mice
[5] = test system: A/California/07/09 (H1N1) influenza virus; assay: Hemagglutination inhibition (HAI) titers in sera of vaccinated mice; format: in vivo, BALB/c mice

Compound: C=CC(=O)Nc1ccc2ncnc(Nc3cccc(Br)c3)c2c1 [PD168393, N-[4-(3-bromoanilino)quinazolin-6-yl]prop-2-enamide]
- steady state levels of the housekeeping genes and several other genes (CCL2): unchanged
- steady state mRNA levels of the chemokine CCL2 (CCL2; vs vehicle (10% DMSO in ethanol)): statistically significant increase
- numbers of activated influenza-specific immune cells as defined by IFN-γ and IL-4 secretion ([1]; one week post immunization, vs vehicle-vaccinated mice): higher numbers
- numbers of IL-4 secreting cells ([1]; skin-draining lymph nodes, one week post immunization, vs vehicle-vaccinated mice): 3 fold
- numbers of IFN-γ secreting cells ([1]; skin-draining lymph nodes, one week post-vaccination, vs vaccine-vehicle cohort): 4 fold
- levels of IL-4 secreting lymphocytes ([1]; skin-draining lymph nodes, two weeks post immunization, vs vehicle): significantly higher
- difference in numbers of IFN-γ secreting cells ([1]; skin-draining lymph nodes, two weeks post vaccination, vs vaccine-vehicle cohort): absent
- numbers of IL-4 and IFN-γ secreting cells in spleens ([1]; spleens, EGFRI- vs vehicle-vaccinated mice): no differences
- elicitation phase of contact hypersensitivity (contact hypersensitivity): enhance
- total vaccine-reactive antibodies [2]: no differences
- NT titers [3]: increased relative to both control groups
- numbers of IgG-secreting cells ([4]; skin draining lymph nodes, 1 and 2 weeks post vaccination, vs vehicle-vaccinated mice): significantly higher
- number of IgG secreting cells ([4]; skin draining lymph nodes, day 14, vs vehicle-vaccinated mice): twice as high
- number of IgM secreting cells ([4]; skin draining lymph nodes, seven days post vaccination, vs vehicle-vaccinated mice): double
- number of cells producing influenza-specific antibodies ([4]; skin-draining lymph nodes, topical treatment prior to vaccination): increase
- cellular responses in the spleen (antibody secreting cells) ([4]; spleen, EGFRI- vs vehicle-vaccinated mice): without any notable differences
- HAI titers, difference to vaccine alone or vehicle-vaccine group ([5]; as early as week 4): two-fold higher
- functionally relevant humoral immune responses ([5]; single application at site just prior to intradermal vaccination, vs vehicle (10% DMSO in ethanol)-treated mice): significantly higher
- HAI titers ([5]; single topical application at site just prior to intradermal vaccination, vs vehicle-vaccine and vaccine only): significantly higher
